Consider seven compounds from paper PMC6009911, “Inhibition of human cytochromes P450 2A6 and 2A13 by flavonoids, acetylenic thiophenes and sesquiterpene lactones from Pluchea indica and Vernonia cinerea” (Journal of Enzyme Inhibition and Medicinal Chemistry, 2017).

One may read the IC50 as the point on the concentration scale where inhibition reaches its midpoint. What is called Ki is a dissociation constant, usually derived from enzyme kinetics or from competition with a known ligand. As usually defined, the kinact is the maximal first-order rate at which the target is inactivated.

Each structure is given as a SMILES string. Read-outs that look alike come from different tables or passages of the source. Marks after values point to notes of the source that are not given here.

The target in data set [1] is T1, CYP2A13 (Homo sapiens, UniProt Q16696).
T1 construct: made in house
T1 sequence (Q16696 1-494): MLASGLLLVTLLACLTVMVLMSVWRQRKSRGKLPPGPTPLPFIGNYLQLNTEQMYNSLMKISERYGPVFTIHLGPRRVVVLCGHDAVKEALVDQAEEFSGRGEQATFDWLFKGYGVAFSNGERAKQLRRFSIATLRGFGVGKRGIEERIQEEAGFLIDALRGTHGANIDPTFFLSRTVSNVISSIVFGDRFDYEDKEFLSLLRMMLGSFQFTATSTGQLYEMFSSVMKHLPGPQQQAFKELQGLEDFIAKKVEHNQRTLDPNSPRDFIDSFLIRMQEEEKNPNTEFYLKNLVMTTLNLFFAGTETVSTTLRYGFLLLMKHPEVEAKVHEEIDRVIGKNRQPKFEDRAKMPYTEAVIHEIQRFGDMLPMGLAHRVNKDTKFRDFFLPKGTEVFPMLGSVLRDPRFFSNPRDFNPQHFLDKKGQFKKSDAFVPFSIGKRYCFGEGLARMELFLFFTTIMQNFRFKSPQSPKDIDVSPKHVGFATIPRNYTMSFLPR
As to the kind of experiment: Inhibition of CYP2A13-mediated coumarin 7-hydroxylation, enzymatic reconstitution assay. The data set is classed as biochemical. Conditions: for Ki: coumarin 0–40 µM. The method, then:
Inhibitory effect of plant extracts, fractions, subfractions and constituents was determined by inhibition assay on CYP2A6- and CYP2A13-mediated coumarin 7-hydroxylation. The recombinant human CYP2A6, CYP2A13 and rat NADPH-dependent cytochrome P450 oxidoreductase (CYPOR) proteins were expressed, purified, according to the methods previously described. […] Rate of 7-hydroxycoumarin product formation was measured on spectrofluorometer (Shimadzu, Kyoto, Japan) at λex = 355 nm, λem = 460 nm. Inhibition effects were determined by incubation with extracts, fractions or purified compounds with coumarin substrate in the reaction mixture and calculated as per cent relative inhibition compared with vehicle control reaction[20] and IC50 values were calculated using GraphPad Prism 5 (GraphPad Software Inc., La Jolla, CA).
(§1) MBI requires NADPH and time to generate reactive intermediate as inhibitor and ultimately inactivates the enzyme. MBI was evaluated by pre-incubation with each test inhibitor in the reaction at different time periods (0, 10, 20 and 30 min) in the presence of NADPH for time-dependent assay, as described. The apparent inactivation constants, KI and Kinact, were obtained from double reciprocal plots of kobs versus inhibitor concentrations by linear regression analysis on GraphPad Prism 5. Methoxsalen was used as a control mechanism-based inhibitor for time- and NADPH-dependent inhibition assays.

For data set [2], the target named is T2, CYP2A6 (Homo sapiens, UniProt P11509).
T2 sequence (P11509 1-494): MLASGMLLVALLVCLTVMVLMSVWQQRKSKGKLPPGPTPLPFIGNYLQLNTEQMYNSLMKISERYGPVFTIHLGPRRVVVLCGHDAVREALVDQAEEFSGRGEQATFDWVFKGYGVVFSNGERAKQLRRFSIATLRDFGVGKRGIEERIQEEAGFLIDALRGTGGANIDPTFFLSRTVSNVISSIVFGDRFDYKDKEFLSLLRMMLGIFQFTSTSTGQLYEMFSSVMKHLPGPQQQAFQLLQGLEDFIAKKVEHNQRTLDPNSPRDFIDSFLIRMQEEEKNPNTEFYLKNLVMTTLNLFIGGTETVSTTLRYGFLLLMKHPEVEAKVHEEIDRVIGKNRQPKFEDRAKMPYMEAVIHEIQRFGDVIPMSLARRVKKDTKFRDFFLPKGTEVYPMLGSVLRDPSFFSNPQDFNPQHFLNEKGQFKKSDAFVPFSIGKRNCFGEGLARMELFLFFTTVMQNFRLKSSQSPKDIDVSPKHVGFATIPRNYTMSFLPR
Also on record: made in house. As to conditions: ref Prasopthum et al., 2015, cited from earlier work; for Ki: coumarin 0–40 µM.

For data set [3], the target named is T2, CYP2A6. As to conditions: cited from earlier work.
Data set [4] addresses T1, CYP2A13. Description: Mechanism-based (time- and NADPH-dependent) inactivation of CYP2A13. As to conditions: for kinact / KI (inactivation): pre-incubation 0-30 min with NADPH; for KI (inactivation): read-out: CYP2A13 KI (inactivation constant). The data set is classed as biochemical. On the procedure:
as §1

Data set [5] deals with T1, CYP2A13. Description: Effects of trapping agents and dialysis on inactivation of CYP2A13. Type of data set: biochemical. Conditions: CYP2A13 inhibition reaction mixture, probe coumarin; for activity at 10 µM: compound 10 µM; for activity at 20 µM: compound 20 µM. On the procedure: as §1
To explore whether inactivation of CYP2As by thiophenes 9–11 and of CYP2A13 by hirsutinolides 5-8 could be reversed, the removal of reversible inhibitory compounds by dialysis and addition of trapping agents (GSH, semicarbazide, catalase or potassium ferricyanide) in the inhibition reaction mixture were performed. […] Similarly, mechanism-based inactivation of both CYP2A6 and CYP2A13 by thiophenes 9–11 could not be reversed (Table 3).

The mark [6] stands for this setting: 10-min pre-incubation in the presence of NADPH, read-out: IC50 CYP2A13 Pre-incubation.
The mark [7] stands for this setting: coincubation, coumarin 2 µM, read-out: IC50 CYP2A13 Coincubation.
The mark [8] stands for this setting: read-out: CYP2A6 KI (inactivation constant), ref Prasopthum et al., 2015.
[9] abbreviates: 10-min pre-incubation in the presence of NADPH, read-out: IC50 CYP2A6 Pre-incubation.
Setting [10] is: coincubation, coumarin 2 µM, read-out: IC50 CYP2A6 Coincubation.
[11] abbreviates: read-out: Per cent remaining activity, 70 μM K3Fe(CN)6.
[12] abbreviates: read-out: Per cent remaining activity, 2 mM GSH.
Setting [13] is: read-out: Per cent remaining activity, 5 mM semicarbazide.
The mark [14] stands for this setting: read-out: Per cent remaining activity, 2000 U catalase.
[15] abbreviates: read-out: Per cent remaining activity, Dialysis (+) NADPH.
[16] abbreviates: read-out: Per cent remaining activity, Dialysis (−) NADPH.
Where [17] appears, read: read-out: Per cent remaining activity, Pre-incubation.
[18] abbreviates: read-out: inactivation kinetic values (KI) against CYP2A6, literature values.

For `O=c1cc(-c2ccc(O)cc2)oc2cc(O)cc(O)c12` [Apigenin 1, apigenin], at CYP2A13 [1], the “CYP2A13 Mode of inhibition” value is “Mixed type”. Further, the values for the IC50 on CYP2A13 [1] (setting [6]) and on CYP2A13 [1] (setting [7]) were 0.04 ± 0.01 µM and 0.05 ± 0.01 µM, respectively. On CYP2A13 [1], the Ki was 0.014 ± 0.002 µM. Besides, the “CYP2A6 Mode of inhibition” value at CYP2A6 [2] is listed as “Mixed type^b”.
Take `C=C(C)C(=O)OC1CC(C)C2(O)CCC(C)(/C=C3/OC(=O)C(COC(C)=O)=C31)O2` (stereo not drawn) [Hirsutinolide 5, 8α-(2-methylacryloyloxy)-hirsutinolide-13-O-acetate]: the KI (inactivation) at CYP2A6 [3] (setting [8]) is 7.45 ± 0.62 µM; at CYP2A13 [4] it was 0.92 ± 0.17 µM. Moreover, the “CYP2A6 Kinact” value on CYP2A6 [3] (ref Prasopthum et al., 2015) is 0.05 ± 0.01^b. The “CYP2A13 Mode of inhibition” value on CYP2A13 [1] is on record as “Mixed type”. In addition, the 50% inhibitory concentration (IC50) on CYP2A13 [1] (setting [6]) is 4.5 ± 0.18 µM; on CYP2A13 [1] (setting [7]), 16.4 ± 3.1 µM; on CYP2A6 [2] (setting [9]) it was 8.64 ± 0.37 µM; at CYP2A6 [2] (setting [10]), 22.3 ± 2.5 µM. The Ki was 5.61 ± 0.99 µM at CYP2A13 [1] and 15.1 ± 2.1 µM on CYP2A6 [2]. The kinact on CYP2A13 [4] was 0.0005 s⁻¹. The “CYP2A6 Mode of inhibition” value at CYP2A6 [2] was “Mixed type^b”. For the same compound, the activity at 10 µM at CYP2A13 [5] (setting [11]) is 24.1 ± 0.62%; at CYP2A13 [5] (setting [12]), 28.2 ± 6.54%; at CYP2A13 [5] (setting [13]) it was 24.4 ± 2.54%; at CYP2A13 [5] (setting [14]), 20.3 ± 6.24%; on CYP2A13 [5] (setting [15]) it was 18.6 ± 0.94%; at CYP2A13 [5] (setting [16]) it was 86 ± 6.65%. Moreover, the activity at 10 µM at CYP2A13 [5] (setting [17]) amounted to 29.3 ± 2.53%.
For `C=C(CO)C(=O)OC1CC(C)C2(O)CCC(C)(/C=C3/OC(=O)C(COC(C)=O)=C31)O2` (stereo not drawn) [Hirsutinolide 7, 8α-(4-hydroxymethacryloyloxy)-hirsutinolide-13-O-acetate], the KI (inactivation) at CYP2A6 [3] (setting [8]) was 5.32 ± 0.29 µM; on CYP2A13 [4], 8.67 ± 0.15 µM. Moreover, the “CYP2A6 Kinact” value at CYP2A6 [3] (ref Prasopthum et al., 2015) is on record as 0.03 ± 0.01^b. The “CYP2A13 Mode of inhibition” value on CYP2A13 [1] is on record as “Mixed type”. Also, the IC50 at CYP2A13 [1] (setting [6]) is 10.5 ± 0.49 µM; on CYP2A13 [1] (setting [7]), 23.3 ± 1.35 µM; at CYP2A6 [2] (setting [9]), 6.8 ± 0.77 µM; at CYP2A6 [2] (setting [10]), 32.7 ± 2.2 µM. The Ki was 12.6 ± 1.26 µM on CYP2A13 [1] and 20.4 ± 5.4 µM at CYP2A6 [2]. For the same compound, on CYP2A13 [4], the kinact is 0.001 s⁻¹. In addition, the “KI, CYP2A13 (in Figure 2)” value on CYP2A13 [4] (time- and concentration-dependent inactivation) is given as 8.67 ± 0.15. Besides, on CYP2A6 [2], the “CYP2A6 Mode of inhibition” value is reported as “Mixed type^b”. Also, the activity at 10 µM turned out to be 21.4 ± 2.75% at CYP2A13 [5] (setting [11]); 18.3 ± 1.54% at CYP2A13 [5] (setting [12]); 26.6 ± 1.25% at CYP2A13 [5] (setting [13]); 20.9 ± 5.18% at CYP2A13 [5] (setting [14]); 21.4 ± 4.45% on CYP2A13 [5] (setting [15]); 93.3 ± 2.1% on CYP2A13 [5] (setting [16]). At CYP2A13 [5] (setting [17]), the activity at 10 µM worked out at 22.2 ± 1.88%.
As for `CC(=O)OCC1=C2/C(=C\C3(C)CCC(O)(O3)C(C)CC2OC(=O)/C(C)=C/CO)OC1=O` (stereo not drawn) [Hirsutinolide 8, 8α-(4-hydroxytigloyloxy)-hirsutinolide-13-O-acetate], the values for the KI (inactivation) on CYP2A6 [3] (setting [8]) and at CYP2A13 [4] were 7.64 ± 1.24 µM and 8.62 ± 0.37 µM, respectively. Moreover, the “CYP2A6 Kinact” value at CYP2A6 [3] (ref Prasopthum et al., 2015) was 0.09 ± 0.01^b. The “CYP2A13 Mode of inhibition” value on CYP2A13 [1] is recorded as “Mixed type”. In addition, the concentration for half-maximal inhibition (IC50) at CYP2A13 [1] (setting [6]) is 15.9 ± 0.67 µM; on CYP2A13 [1] (setting [7]) it was 36.1 ± 1.39 µM; on CYP2A6 [2] (setting [9]), 13.1 ± 2.4 µM; at CYP2A6 [2] (setting [10]), 64.5 ± 5.8 µM. For the same compound, the Ki at CYP2A13 [1] is 15.8 ± 2.5 µM; at CYP2A6 [2], 42.3 ± 8.4 µM. For the same compound, the kinact on CYP2A13 [4] was 0.00167 s⁻¹. The “CYP2A6 Mode of inhibition” value on CYP2A6 [2] was “Mixed type^b”. For the same compound, the activity at 20 µM turned out to be 21.8 ± 1.85% at CYP2A13 [5] (setting [11]); 25.8 ± 4.2% at CYP2A13 [5] (setting [12]); 20.7 ± 2.92% on CYP2A13 [5] (setting [13]); 19.4 ± 1.39% at CYP2A13 [5] (setting [14]); 18.4 ± 1.1% at CYP2A13 [5] (setting [15]); 92.4 ± 4.03% on CYP2A13 [5] (setting [16]). Besides, at CYP2A13 [5] (setting [17]), the activity at 20 µM is 23.9 ± 3.17%.
Regarding `O=c1c(O)c(-c2ccc(O)c(O)c2)oc2cc(O)cc(O)c12` [Quercetin 4, quercetin], on CYP2A13 [1], the “CYP2A13 Mode of inhibition” value is listed as “Competitive” and the affinity corresponds to a Ki of 0.11 ± 0.01 µM. On CYP2A13 [1] (setting [6]), the IC50 was determined as 0.74 ± 0.02 µM. Moreover, at CYP2A13 [1] (setting [7]), the concentration for half-maximal inhibition (IC50) is 0.8 ± 0.01 µM. For the same compound, the “CYP2A6 Mode of inhibition” value on CYP2A6 [2] is recorded as “Competitive^b”.
For the compound `C/C=C(/C)C(=O)O[C@H]1Cc2cc3ccc(=O)oc3cc2OC1(C)C` [decursinol angelate, reference compound], the KI (inactivation) at CYP2A6 [3] (setting [18]) was 2.42 µM.
For the compound `C#CCN(C)[C@H](C)Cc1ccccc1` [selegiline, reference compound], the KI (inactivation) on CYP2A6 [3] (setting [18]) is 15.6 µM.
